# Assays:
# Assay type in all cases: in vivo
# [1] = system: Panonychus ulmi (OP- and carb.- resistant); test: Activity against Panonychus ulmi (OP- and carb.- resistant); details: 336 h, 400 ppm spray on apple seedlings, evaluated after 14 days, read-out: percentage reduction in population (% activity)
# Description: Apple seedlings are populated with adult females of Panonychus ulmi. After seven days, the infested plants are sprayed to drip point with an aqueous emulsion comprising 400 ppm of the test compound and grown in the greenhouse. The test is evaluated after 14 days. The percentage reduction in population (% activity) is determined by comparing the number of dead spider mites on the treated plants with those on the untreated plants. […] An activity of over 80% is shown, in particular, by compound Nos. 1.01, 2.01, 2.07, 2.08, 2.10, 2.12 to 2.16, 2.22, 2.23, 2.26, 3.01, 4.01, 4.02, 4.06, 5.01 to 5.03, 5.05, 5.06, 5.08, 5.10, 5.11, 5.15, 5.16 and 5.20 to 5.25.
# Nephotettix cincticeps = test: Activity against Nephotettix cincticeps (spray on rice plants); details: 504 h, 400 ppm spray on rice plants, larvae in stages 2 and 3, evaluated 21 days later, read-out: percentage reduction in population (% activity)
# Description: Rice plants are treated with a spray mixture prepared with an aqueous emulsion and comprising 400 ppm of the active ingredient. After the spray coating has dried on, the rice plants are populated with leaf hopper larvae in stages 2 and 3. The test is evaluated 21 days later. The percentage reduction in population (% activity) is determined by comparing the number of surviving leaf hoppers on the treated plants with those on the untreated plants.
# Dermanyssus gallinae = test: Activity against Dermanyssus gallinae; details: 72 h, 10 ppm solution, mites in different development stages, after 3 days
# Description: 2 to 3 ml of a solution comprising 10 ppm of active ingredient and approximately 200 mites in different development stages are placed into a glass container which is open at the top. The container is then sealed with a cottonwool ball, shaken for 10 minutes until the mites are wetted completely, and then briefly turned over so that the remaining test solution can be absorbed by the cottonwool. After 3 days, the mortality of the mites is determined by counting the dead individuals; it is given as a percentage.
# Nilaparvata lugens [2] = test: Activity against Nilaparvata lugens (spray on rice plants); details: 504 h, 400 ppm spray on rice plants, larvae in stages 2 and 3, evaluated after 21 days, read-out: percentage reduction in population (% activity)
# Description: Rice plants are treated with a spray mixture prepared with an aqueous emulsion and comprising 400 ppm of the active ingredient. After the spray coating has dried on, the rice plants are populated with plant hopper larvae in stages 2 and 3. The test is evaluated after 21 days. The percentage reduction in population (% activity) is determined by comparing the number of surviving plant hoppers on the treated plants with the number of plant hoppers on the untreated plants. […] An activity of over 80% is shown, in particular, by compound Nos. 1.01, 2.01 to 2.03, 2.07, 2.08, 2.10 to 2.16, 2.20, 2.22, 2.23, 2.26, 3.01, 4.01 to 4.06, 4.20, 5.01 to 5.06, 5.08, 5.10 to 5.12, 5.15, 5.16 and 5.20 to 5.25.
# adult Anthonomus grandis = test: Activity against adult Anthonomus grandis; details: 72 h, 400 ppm spray on young cotton plants, adults, evaluated after 3 days, read-out: percentage reduction in population or in feeding damage (% activity)
# Description: (§1) Young cotton plants are sprayed with a spray mixture prepared with an aqueous emulsion and comprising 400 ppm of the active ingredient. After the spray coating has dried on, the cotton plants are populated with 10 adult Anthonomus grandis and placed into a plastic container. The test is evaluated after 3 days. The percentage reduction in population, or the percentage reduction in feeding damage (% activity), is determined by comparing the number of dead beetles and the feeding damage on the treated plants with those on the untreated plants.
# Tetranychus urticae = test: Activity against Tetranychus urticae; details: 144 h, 400 ppm spray on young bean plants, mixed population, 6 days at 25° C, read-out: percentage reduction in population (% activity)
# Description: Young bean plants are populated with a mixed population of Tetranychus urticae and, after 1 day, sprayed with a spray mixture prepared with an aqueous emulsion and comprising 400 ppm of the active ingredient. The plants are subsequently incubated for 6 days at 25° C and then evaluated. The percentage reduction in population (% activity) is determined by comparing the number of dead eggs, larvae and adults on the treated plants with those on the untreated ones.
# Heliothis virescens = test: Ovicidal/larvicidal activity on Heliothis virescens; details: 192 h, 400 ppm spray on eggs deposited on cotton, evaluated after 8 days, read-out: % reduction in population (hatching percentage of eggs and survival rate of caterpillars)
# Description: Heliothis eggs which have been deposited on cotton are sprayed with a spray mixture prepared with an aqueous emulsion and comprising 400 ppm of the active ingredient. After 8 days, the hatching percentage of the eggs and the survival rate of the caterpillars are evaluated by comparing them with untreated control batches (% reduction in population).
# Nilaparvata lugens [3] = test: Systemic activity against Nilaparvata lugens; details: 144 h, pots with rice plants in 400 ppm aqueous emulsion solution, larvae in stages 2 and 3, evaluated 6 days later, read-out: percentage reduction in population (% activity)
# Description: Pots containing rice plants are placed into an aqueous emulsion solution comprising 400 ppm of the active ingredient. The rice plants are subsequently populated with larvae in stages 2 and 3. The test is evaluated 6 days later. The percentage reduction in population (% activity) is determined by comparing the numbers of plant hoppers on the treated plants with those on the untreated plants.
# Ctenocephalides felis = test: Activity against Ctenocephalides felis; details: 504 h, 100 ppm in flea larvae nutrient medium, flea eggs, checked after 21 days
# Description: 20 to 25 flea eggs are placed into a horizontally positioned 50 ml tissue culture flask into which 15 g of flea larvae nutrient medium comprising 100 ppm of the active ingredient to be tested have previously been introduced. The test flasks are incubated in an incubator at 26° to 27° C. and an atmospheric humidity of 60-70%. After 21 days, the flasks are checked for the presence of adult fleas, unhatched pupae and larvae.
# [4] = system: Heliothis virescens caterpillars; test: Activity against Heliothis virescens caterpillars; details: 144 h, 400 ppm spray on young soybean plants, first larval stage, evaluated after 6 days, read-out: percentage reduction in population or in feeding damage (% activity)
# Description: as §1, with “soybean” for “cotton”, “Heliothis virescens in the first larval stage” for “adult Anthonomus grandis”, “6” for “3”, “caterpillars” for “beetles”
# Bemisia tabaci = test: Activity against Bemisia tabaci; details: 336 h, 400 ppm spray on dwarf bean plants with nymphs, evaluated 14 days after application, read-out: activity (hatching percentages vs untreated control)
# Description: Dwarf bean plants are placed into gauze cages and populated with adult Bemisia tabaci specimens (white fly). After oviposition has taken place, all adults are removed and, 10 days later, the plants with the nymphs located thereon are treated with a spray mixture of the active ingredients to be tested (concentration 400 ppm), which has been prepared with an aqueous emulsion. The test is evaluated for hatching percentages 14 days after the active ingredient has been applied by comparison with the untreated control batches. […] An activity of over 80% is shown, in particular, by compound Nos. 1.01, 2.01 to 2.08, 2.10 to 2.16, 2.22, 2.23, 3.01, 4.01, 4.02, 4.05, 4.06, 5.02, 5.03, 5.06 to 5.08, 5.10, 5.11, 5.20, 5.21 and 6.09.
structure (smiles),measurement,setting,value
O=C(CCCC=C(F)F)OCCOc1ccc(Oc2ccccc2)cc1 [Compound 2.01],activity at 400 ppm,[1],> 80%
same,activity at 400 ppm,Nephotettix cincticeps,> 80%
O=C(CCCC=C(F)F)OCCOc1ccc(Sc2ccccc2)cc1 [Compound 2.02],activity at 400 ppm,Nephotettix cincticeps,> 80%
O=C(CCCC=C(F)F)OCCOc1ccc(Oc2ccccn2)cc1 [Compound 2.03],activity at 400 ppm,Nephotettix cincticeps,> 80%
CC(COC(=O)CCCC=C(F)F)Oc1ccc(Oc2ccccc2)cc1 (stereo not drawn) [Compound 2.06],activity at 400 ppm,Nephotettix cincticeps,> 80%
same,mortality at 10 ppm,Dermanyssus gallinae,> 80%
O=C(CCCC=C(F)F)OCCOc1ccc(OCc2ccc(F)cc2)cc1 [Compound 2.07],activity at 400 ppm,Nilaparvata lugens [2],> 80%
same,activity at 400 ppm,[1],> 80%
same,activity at 400 ppm,Nephotettix cincticeps,> 80%
same,activity at 400 ppm,adult Anthonomus grandis,> 80%
O=C(CCCC=C(F)F)OCCOc1ccc(OCc2ccc(Cl)cc2)cc1 [Compound 2.08],activity at 400 ppm,Nilaparvata lugens [2],> 80%
same,activity at 400 ppm,[1],> 80%
same,activity at 400 ppm,adult Anthonomus grandis,> 80%
N#Cc1ccc(COc2ccc(OCCOC(=O)CCCC=C(F)F)cc2)cc1 [Compound 2.10],activity at 400 ppm,[1],> 80%
same,activity at 400 ppm,Tetranychus urticae,> 80%
CC(OC(=O)CCCC=C(F)F)C(C)Oc1ccc(Oc2ccccc2)cc1 (stereo not drawn) [Compound 2.13],mortality at 10 ppm,Dermanyssus gallinae,> 80%
O=C(CCCC=C(F)F)OCCOc1ccc(OCc2cccc([N+](=O)[O-])c2)cc1 [Compound 2.15],pest or weed control at 400 ppm,Heliothis virescens,> 80%
Cc1ccc(COc2ccc(OCCOC(=O)CCCC=C(F)F)cc2)cc1C [Compound 2.16],pest or weed control at 400 ppm,Heliothis virescens,> 80%
O=C(CCCC=C(F)F)NCCOc1ccc(Oc2ccccc2)cc1 [Compound 2.20],activity at 400 ppm,Nilaparvata lugens [2],> 80%
same,activity at 400 ppm,Nilaparvata lugens [3],> 80%
CC(C)(C)c1ccc(COc2ccc(OCCOC(=O)CCCC=C(F)F)cc2)cc1 [Compound 2.26],activity at 400 ppm,Nilaparvata lugens [2],> 80%
same,pest or weed control at 100 ppm,Ctenocephalides felis,> 80%
same,activity at 400 ppm,Nilaparvata lugens [3],> 80%
same,activity at 400 ppm,[1],> 80%
same,activity at 400 ppm,Nephotettix cincticeps,> 80%
same,activity at 400 ppm,Tetranychus urticae,> 80%
same,activity at 400 ppm,[4],> 80%
same,pest or weed control at 400 ppm,Heliothis virescens,> 80%
O=C(CCCCCCCC=C(F)F)OCCOc1ccc(Oc2ccccn2)cc1 [Compound 4.03],pest or weed control at 100 ppm,Ctenocephalides felis,> 80%
Cc1nsc(Oc2ccc(OCCOC(=O)CCCCCCCC=C(F)F)cc2)n1 [Compound 4.04],pest or weed control at 100 ppm,Ctenocephalides felis,> 80%
same,mortality at 10 ppm,Dermanyssus gallinae,> 80%
O=C(CCCCCCCC=C(F)F)OCCOc1ccc(OCc2ccccc2)cc1 [Compound 4.05],activity at 400 ppm,Nephotettix cincticeps,> 80%
same,pest or weed control at 400 ppm,Bemisia tabaci,> 80%
same,activity at 400 ppm,[4],> 80%
same,mortality at 10 ppm,Dermanyssus gallinae,> 80%
O=C(CCCCCCCC=C(F)F)NCCOc1ccc(Oc2ccccc2)cc1 [Compound 4.20],activity at 400 ppm,Nilaparvata lugens [2],> 80%
same,activity at 400 ppm,Nilaparvata lugens [3],> 80%
same,activity at 400 ppm,Tetranychus urticae,> 80%
same,activity at 400 ppm,[4],> 80%
same,pest or weed control at 400 ppm,Heliothis virescens,> 80%
O=C(CCCCCCCCCC=C(F)F)OCCOc1ccc(Oc2ccccn2)cc1 [Compound 5.03],pest or weed control at 400 ppm,Bemisia tabaci,> 80%
CC(COC(=O)CCCCCCCCCC=C(F)F)Oc1ccc(Oc2ccccc2)cc1 (stereo not drawn) [Compound 5.06],activity at 400 ppm,[1],> 80%
O=C(CCCCCCCCCC=C(F)F)OCCOc1ccc(OCc2ccc(Cl)cc2)cc1 [Compound 5.08],activity at 400 ppm,Nilaparvata lugens [2],> 80%
same,pest or weed control at 100 ppm,Ctenocephalides felis,> 80%
same,activity at 400 ppm,[1],> 80%
same,activity at 400 ppm,Tetranychus urticae,> 80%
N#Cc1ccc(COc2ccc(OCCOC(=O)CCCCCCCCCC=C(F)F)cc2)cc1 [Compound 5.10],activity at 400 ppm,[1],> 80%
same,pest or weed control at 400 ppm,Bemisia tabaci,> 80%
same,activity at 400 ppm,adult Anthonomus grandis,> 80%
Cc1ccc(COc2ccc(OCCOC(=O)CCCCCCCCCC=C(F)F)cc2)cc1 [Compound 5.11],activity at 400 ppm,[1],> 80%
same,pest or weed control at 400 ppm,Bemisia tabaci,> 80%
O=C(CCCCCCCCCC=C(F)F)OCCOc1ccc(OCc2cccc([N+](=O)[O-])c2)cc1 [Compound 5.15],activity at 400 ppm,Nilaparvata lugens [2],> 80%
same,activity at 400 ppm,Nilaparvata lugens [3],> 80%
same,activity at 400 ppm,[1],> 80%
same,activity at 400 ppm,Nephotettix cincticeps,> 80%
same,activity at 400 ppm,Tetranychus urticae,> 80%
same,activity at 400 ppm,[4],> 80%
same,pest or weed control at 400 ppm,Heliothis virescens,> 80%
Cc1ccc(COc2ccc(OCCOC(=O)CCCCCCCCCC=C(F)F)cc2)cc1C [Compound 5.16],activity at 400 ppm,Nilaparvata lugens [2],> 80%
same,activity at 400 ppm,Nilaparvata lugens [3],> 80%
same,activity at 400 ppm,[1],> 80%
same,activity at 400 ppm,Nephotettix cincticeps,> 80%
same,activity at 400 ppm,Tetranychus urticae,> 80%
same,activity at 400 ppm,[4],> 80%
same,activity at 400 ppm,adult Anthonomus grandis,> 80%
same,pest or weed control at 400 ppm,Heliothis virescens,> 80%
O=C(CCCCCCCCCC=C(F)F)OCCOc1ccc(OCc2cccc(Cl)c2)cc1 [Compound 5.20],activity at 400 ppm,Nephotettix cincticeps,> 80%
same,pest or weed control at 400 ppm,Bemisia tabaci,> 80%
O=C(CCCCCCCCCC=C(F)F)NCCOc1ccc(OCc2ccc(C(F)(F)F)cn2)cc1 [Compound 5.21],pest or weed control at 400 ppm,Bemisia tabaci,> 80%
same,mortality at 10 ppm,Dermanyssus gallinae,> 80%
O=C(CCCCCCCCCC=C(F)F)OCCOc1ccc(OCc2ncc(C(F)(F)F)cc2Cl)cc1 [Compound 5.22],activity at 400 ppm,Nephotettix cincticeps,> 80%
CC(COC(=O)CCCCCCCCCC=C(F)F)Oc1ccc(Sc2ccccc2)cc1 (stereo not drawn) [Compound 5.25],activity at 400 ppm,Nephotettix cincticeps,> 80%
same,activity at 400 ppm,[4],> 80%
CC(CCCCCCCCCC(=O)OCCOc1ccc(Oc2ccccc2)cc1)=C(F)Cl [Compound 6.09],pest or weed control at 400 ppm,Bemisia tabaci,> 80%
same,pest or weed control at 400 ppm,Heliothis virescens,> 80%

# — patent US5481013A, “Carboxylic acid derivatives” (Ciba-Geigy Corporation, priority 1992, dated 1996)
